What all share (assay type): cell-based
The target in assay [1] is T1, human S1PR5 (Homo sapiens, UniProt Q9H228).
T1 construct: host or cells: CHO-K1
Description: Intracellular Ca2+ release (FLIPR) agonist potency, S1P5. As to conditions: recombinant CHO-K1 cells expressing human S1PR5, aequorin, Gq/i5; Calcium 5 FLIPR; read-out: S1P5 EC50 range. The protocol: (§1) Agonistic activity was measured using the method described below.
(§2) Intracellular Ca^2+ Release
(§3) Agonist potency and intrinsic activity was assessed by measurement of intracellular Ca^2+ release. Recombinant CHO-K1 cells (Euroscreen, Brussels, Belgium) expressing human S1PR5, S1PR1, S1PR3 or S1PR4 receptors, aequorin, and GTP binding protein Gq/i5 were cultured using a medium containing nutrient mixture F-12 Ham (Sigma-Aldrich) with 10% FBS, and 100 μg/mL gentamicin and equilibrated at 5% CO2.
(§4) Phospho-fingolimod was used as positive control. Antagonists were pre-incubated for 10 min with cells before addition of the agonist (phospho-fingolimod at EC80). Measurements were performed using a fluorometric imaging plate reader FLIPR®tetra (Molecular Devices). Agonist at the human S1P receptors were characterized by deducing EC50 (potency) values from a nonlinear fit to the measured fluorescence raw data after normalization to the reference agonist (phospho-fingolimod) curve.

Assay [2] has as its target T2, human S1PR1 (Homo sapiens, UniProt P21453).
T2 construct: host or cells: CHO-K1
Description: Intracellular Ca2+ release (FLIPR) agonist potency, S1P1. The settings on record: recombinant CHO-K1 cells expressing human S1PR1, aequorin, Gq/i5; Calcium 5 FLIPR; read-out: S1P1 EC50. The protocol: as §1, §2, §3, §4

The target in assay [3] is T3, human S1PR4 (Homo sapiens, UniProt O95977).
T3 construct: host or cells: CHO-K1
T3 sequence (O95977 1-384): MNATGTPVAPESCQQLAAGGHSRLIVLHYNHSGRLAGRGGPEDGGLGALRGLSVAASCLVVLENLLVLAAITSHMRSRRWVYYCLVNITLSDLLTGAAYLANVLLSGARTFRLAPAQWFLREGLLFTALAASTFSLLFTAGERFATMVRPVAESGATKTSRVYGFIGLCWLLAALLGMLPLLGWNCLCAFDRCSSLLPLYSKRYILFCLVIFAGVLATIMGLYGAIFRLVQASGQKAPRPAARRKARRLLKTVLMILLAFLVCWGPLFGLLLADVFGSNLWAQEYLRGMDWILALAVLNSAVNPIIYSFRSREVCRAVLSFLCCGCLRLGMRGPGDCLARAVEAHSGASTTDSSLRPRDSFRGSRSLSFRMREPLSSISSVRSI
The assay can be described thus: Intracellular Ca2+ release (FLIPR) agonist potency, S1P4. The settings on record: recombinant CHO-K1 cells expressing human S1PR4, aequorin, Gq/i5; Calcium 5 FLIPR; read-out: S1P4 EC50. As to the method: as §1, §2, §3, §4

T1 sequence (Q9H228 whole entry): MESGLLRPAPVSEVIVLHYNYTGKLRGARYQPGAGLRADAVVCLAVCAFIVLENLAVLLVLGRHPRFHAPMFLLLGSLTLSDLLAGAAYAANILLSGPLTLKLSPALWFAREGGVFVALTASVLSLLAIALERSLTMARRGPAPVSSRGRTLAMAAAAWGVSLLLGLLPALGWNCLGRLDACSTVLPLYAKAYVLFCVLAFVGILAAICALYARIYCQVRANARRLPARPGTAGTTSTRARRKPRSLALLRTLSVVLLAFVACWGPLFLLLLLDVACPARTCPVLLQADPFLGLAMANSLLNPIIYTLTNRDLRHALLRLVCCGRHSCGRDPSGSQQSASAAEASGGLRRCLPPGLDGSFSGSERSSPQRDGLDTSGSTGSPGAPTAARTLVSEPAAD
T2 sequence (P21453 whole entry): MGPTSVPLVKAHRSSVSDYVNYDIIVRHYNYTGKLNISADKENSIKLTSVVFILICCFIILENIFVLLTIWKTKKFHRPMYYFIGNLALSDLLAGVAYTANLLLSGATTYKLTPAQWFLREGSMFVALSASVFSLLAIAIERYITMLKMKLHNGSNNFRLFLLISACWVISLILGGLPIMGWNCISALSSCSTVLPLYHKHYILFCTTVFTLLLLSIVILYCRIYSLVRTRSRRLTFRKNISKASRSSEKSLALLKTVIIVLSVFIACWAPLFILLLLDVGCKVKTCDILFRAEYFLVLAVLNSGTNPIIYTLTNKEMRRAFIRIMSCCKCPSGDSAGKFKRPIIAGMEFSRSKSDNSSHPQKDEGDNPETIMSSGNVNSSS

Broadly, the EC50 is the concentration at which the effect is half-maximal. Consider `O=C(O)C1CN(C2COc3cc(OCc4cccc(C(F)(F)F)c4)ccc3C2)C1` (stereo not drawn) [Compound 59, 1-(7-((3-(trifluoromethyl)benzyl)oxy)chroman-3-yl)azetidine-3-carboxylic acid], for which the EC50 in assay [1] is 0.1 to 1 µM; in assay [2], more than 1 µM; in assay [3], less than 1 µM.
Regarding `O=C(O)C1CN(C2COc3cc(OCc4c(F)cccc4Cl)ccc3C2)C1` (stereo not drawn) [Compound 61, 1-(7-((2-chloro-6-fluorobenzyl)oxy)chroman-3-yl)azetidine-3-carboxylic acid], the EC50 was 0.1 to 1 µM in assay [1], more than 1 µM in assay [2] and more than 1 µM in assay [3].
Turning to `O=C(O)C1CN(C2COc3cc(OCc4ccccc4C(F)(F)F)ccc3C2)C1` (stereo not drawn) [Compound 62, 1-(7-((2-(trifluoromethyl)benzyl)oxy)chroman-3-yl)azetidine-3-carboxylic acid], the results for the EC50 in assay [1], in assay [2] and in assay [3] were 0.01 to 0.1 µM, more than 1 µM and more than 1 µM, respectively.
With `O=C(O)C1CN(C2COc3cc(OCc4ccccc4Cl)ccc3C2)C1` (stereo not drawn) [Compound 63, 1-(7-((2-chlorobenzyl)oxy)chroman-3-yl)azetidine-3-carboxylic acid], the EC50 in assay [1] was 0.1 to 1 µM; in assay [2], more than 1 µM; in assay [3], more than 1 µM.
Regarding `Cc1cccc(Cl)c1COc1ccc2c(c1)OCC(N1CC(C(=O)O)C1)C2` (stereo not drawn) [Compound 71, 1-(7-((2-chloro-6-methylbenzyl)oxy)chroman-3-yl)azetidine-3-carboxylic acid], the EC50 was 0.1 to 1 µM in assay [1], more than 1 µM in assay [2] and more than 1 µM in assay [3].
For `CCc1cccc(F)c1COc1ccc2c(c1)OCC(N(C)CC(=O)O)C2` (stereo not drawn) [Compound 72, 2-((7-((2-ethyl-6-fluorobenzyl)oxy)chroman-3-yl)(methyl)amino)acetic acid], the values for the EC50 in assay [1], in assay [2] and in assay [3] were less than 0.01 µM, more than 1 µM and less than 1 µM, respectively.
With `CCc1cccc(Cl)c1COc1ccc2c(c1)CCC(NCC1(C(=O)O)CC1)C2` (stereo not drawn) [Compound 76, 1-(((6-((2-chloro-6-ethylbenzyl)oxy)-1,2,3,4-tetrahydronaphthalen-2-yl)amino)methyl)cyclopropanecarboxylic acid], the values for the EC50 in assay [1], in assay [2] and in assay [3] were less than 0.01 µM, less than 1 µM and less than 1 µM, respectively.
Take `Cc1cc(COc2ccc3c(c2)OCC(N2CC(C(=O)O)C2)C3)ccc1F` (stereo not drawn) [Compound 84, 1-[7-[(4-fluoro-3-methyl-phenyl)methoxy]chroman-3-yl]azetidine-3-carboxylic acid]: the EC50 was 1 to 10 µM in assay [1], more than 1 µM in assay [2] and more than 1 µM in assay [3].
As to `O=C(O)C1CN(C2COc3cc(OCc4ccc(F)c(C(F)(F)F)c4)ccc3C2)C1` (stereo not drawn) [Compound 85, 1-[7-[[4-fluoro-3-(trifluoromethyl)phenyl]methoxy]chroman-3-yl]azetidine-3-carboxylic acid], the results for the EC50 in assay [1], in assay [2] and in assay [3] were 1 to 10 µM, more than 1 µM and more than 1 µM, respectively.
On to `COc1cccc(COc2ccc3c(c2)OCC(N2CC(C(=O)O)C2)C3)c1F` (stereo not drawn) [Compound 86, 1-[7-[(2-fluoro-3-methoxy-phenyl)methoxy]chroman-3-yl]azetidine-3-carboxylic acid], for which the EC50 in assay [1] is 1 to 10 µM; in assay [2], more than 1 µM; in assay [3] it was more than 1 µM.
As to `Cc1cc(F)cc(COc2ccc3c(c2)OCC(N2CC(C(=O)O)C2)C3)c1` (stereo not drawn) [Compound 87, 1-[7-[(3-fluoro-5-methyl-phenyl)methoxy]chroman-3-yl]azetidine-3-carboxylic acid], the EC50 in assay [1] was 1 to 10 µM; in assay [2] it was more than 1 µM; in assay [3] it was more than 1 µM.
In the case of `Cc1ccc(COc2ccc3c(c2)OCC(N2CC(C(=O)O)C2)C3)c(F)c1` (stereo not drawn) [Compound 88, 1-[7-[(2-fluoro-4-methyl-phenyl)methoxy]chroman-3-yl]azetidine-3-carboxylic acid], the EC50 was 1 to 10 µM in assay [1], more than 1 µM in assay [2] and more than 1 µM in assay [3].
